Assay [1] concerns Tyr mice. In words: Fecal microbiome real-time PCR. Type of assay: in vivo, mouse. Conditions: WT mice. The protocol:
Microbiome—Fecal samples were collected from 12.2±0.19-week-old mice. Samples were prepared and analyzed as previously described (57). Microbiome data was analyzed after applying the logarithmic transformation.

The subject of assay [2] is Tau-MT interaction in differentiated N1E-115 cells. In words: Fluorescence recovery after photobleaching (FRAP) of mCherry-Tau. It counts as cell-based, mouse. The following applies: for Tau-MT interaction (immobile mCherry-Tau fraction): 4 hrs. As for the experimental part:
Cell culture—Mouse neuroblastoma NIE-115 cells were maintained in Dulbecco's modified Eagle's medium, 10% fetal bovine serum, 2 mM glutamine and 100 U ml-1 penicillin, 100 mg ml-1 streptomycin (Biological Industries, Beit Haemek, Israel). The cells were incubated in 9 5% air/5% CO2 in a humidified incubator at 37° C.
Cell differentiation and co-transfection of overexpression plasmids—Cultured NIE-115 cells were plated on 35 mm dishes (81156, 60 p-Dish, Ibidi, Martinsried, Germany) at a concentration of 1.25×10^4 cells per dish and then were differentiated with reduced fetal bovine serum (2%) and DMSO (1.25%) containing medium for 5 days before transfection. 48 hrs before experiments N1E-115 cells were co-transfected with 1 μg EB3-RFP or mCherry-Tau (3R) plasmid with or without 2 μg of plasmids, coding to GFP conjugated to full-length human ADNP, or ADNP carried mutations. 1:3 ratios between total amount of transfected DNA and transfection reagent were used according to manufacture guidance (Lipofectamine2000, Thermo Fisher Scientific, Waltham, MA, USA) in all subsequent experiments.
Fluorescence recovery after photobleaching (FRAP)—Differentiated NIE-115 cells were transfected with mCherry-Tau with or without GFP-conjugated to full-length ADNP or mutated ADNP, and imaged 48 hrs after transfection. An ROI for photobleaching was drowned in the proximal cell branches. mCherry-Tau was bleached with a […], and fluorescence recovery was collected within wavelengths of 610-650 nm. 80 images were taken every 0.74 sec immediately after bleaching. After FRAP imaging all samples were also treated with NAP in final concentrations of 10^−12M, and after 4 hrs time-lapse imaging was done again under the same conditions. FRAP imaging for assessment difference between NAP and SKIP (SEQ ID NO: 21) activity was performed after an hour of ZnCl2 treatment (400 μM final concentration; Sigma, Rehovot, Israel) with or without NAP/SKIP (10^−12M final concentration). Fluorescence signals were quantified with Fiji, obtained data were normalized with easyFRAP [82, 83] and FRAP recovery curves were fitted by a one-phase exponential association function by GraphPad Prism6 (GraphPad Software, Inc., La Jolla, CA, USA) while samples with R^2<0.9 were excluded.
Next, the effect of full-length/truncated ADNP forms with or without NAP treatment on Tau-MT interaction was examined by fluorescence recovery after photobleaching (FRAP) (FIGS. 8A-C). FRAP was performed with mCherry-tagged Tau protein (FIG. 8A). […] Therefore, the immobile mCherry-Tau fraction reflects the rate of Tau association with MTs.

Assay [3] has as its system BTBR mouse. In words: Social recognition in the BTBR mouse. Type of assay: in vivo.

Molecules are shown by their SMILES.

`CC[C@H](C)[C@H](NC(=O)[C@H](CO)NC(=O)[C@@H](NC(=O)[C@@H]1CCCN1C(=O)[C@H](C)NC(=O)[C@@H](N)CC(N)=O)C(C)C)C(=O)N1CCC[C@H]1C(=O)N[C@@H](CCC(N)=O)C(=O)O` [NAP, NAPVSIPQ]: the “bacterial loads (EubV3, BIF, Lacto, Entero)” value in assay [1] was “no effect on WT mice”. Also, the “Tau-MT interaction (immobile mCherry-Tau fraction)” value is “significantly increased Tau-MT interaction” in assay [2] (cells expressing ADNP p.Glu830synfs*83, NAP 10^−12M) and “significantly increased Tau-MT interaction” in assay [2] (cells expressing ADNP p.Ser404*, NAP 10^−12M). For the same compound, the “Tau immobile fraction (Tau-MT interaction) in the presence of zinc” value in assay [2] (zinc 400 μM, 1 h, peptide 10^−12M) is “excessive impact of NAP on Tau-MT interaction”. In addition, the social recognition entry in assay [3] is given as “preference of the mouse, rather than the cup=object chamber”.

(Values after patent US20250032581A1, “COMPOSITIONS AND ARTICLES COMPRISING AN ADNF POLYPEPTIDE” (RAMOT AT TEL-AVIV UNIVERSITY LTD., priority 2021, published 2025).)
